The text below walks through data of PubChem BioAssay (NCI).

What all share (test): NCI-60 cell line screen, 48 h
For experiment [1], the system named is CAKI-1 renal.
Experiment [2] deals with IGROV1 ovarian.
For experiment [3], the system named is EKVX NSCLC.
Experiment [4] deals with HL-60(TB) leukemia.
The subject of experiment [5] is NCI-H23 lung.
Experiment [6] relates to U251 CNS.
Experiment [7] relates to PC-3 prostate.
Experiment [8] has as its system HCT-15 colon.
Experiment [9] deals with MOLT-4 leukemia.
The test system of experiment [10] is SF-268 CNS.

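1) Cells in 96-well plates. 2) Compound, 48 h, 5 concentrations. 3) Linear interpolation between surrounding doses. 4) Unreached endpoint = highest concentration. Here, GI50 denotes the concentration required for 50% inhibition of growth. TGI marks complete inhibition of growth.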

On to `COc1ccc(Nc2c3c4c(cccc4[nH]c2=O)C(=O)c2ccccc2-3)cc1`, for which the GI50 in [1] is less than 0.0218 µM; in experiment [2], 0.0365 µM; in experiment [3], 0.0552 µM; in experiment [4], 0.0188 µM; in experiment [5], less than 0.0185 µM; in experiment [6], 0.0434 µM. Also, the GI50 was 0.0473 µM in [7], 0.0271 µM in [8], 0.558 µM in experiment [9] and 0.0373 µM in [10]. Also, the TGI in [1] was 1.23 µM; in experiment [2], greater than 100 µM; in [3] it was greater than 100 µM; in experiment [4], 0.0393 µM; in experiment [5], greater than 38.9 µM; in experiment [6], greater than 68.9 µM. In addition, the TGI in [7] was greater than 100 µM; in experiment [8] it was greater than 100 µM; in experiment [10], 18.6 µM.

Regarding `COc1ccc(/C=C2\N=C(c3ccccc3)N(c3cc(C(F)(F)F)ccc3Cl)C2=O)cc1OC`, the GI50 in experiment [1] is greater than 100 µM; in experiment [2] it was 28.4 µM; in [3], greater than 100 µM; in [4], 17.6 µM; in experiment [5] it was 90.6 µM; in experiment [6], 39 µM. The GI50 in experiment [7] is 31.4 µM; in [8], 40.7 µM; in experiment [9] it was 29 µM; in experiment [10], 31.8 µM. Moreover, the TGI in experiment [1] was greater than 100 µM; in experiment [2], greater than 100 µM; in experiment [3] it was greater than 100 µM; in experiment [4] it was 47.3 µM; in experiment [5], greater than 100 µM; in [6], greater than 100 µM. Further, the TGI in experiment [7] was greater than 100 µM; in experiment [8], greater than 100 µM; in experiment [9] it was 71.7 µM; in experiment [10] it was greater than 100 µM.

Take `COc1cc(C(=O)NC2CCN(C)CC2)ccc1Nc1ncc2c(n1)N(C1CCCC1)CC(F)(F)C(=O)N2C`: the GI50 in experiment [1] is 1.86 µM; in experiment [3] it was 0.245 µM; in [4] it was less than 0.01 µM; in experiment [5], less than 0.0114 µM; in experiment [6], less than 0.01 µM; in experiment [7], less than 0.0249 µM. The GI50 in [8] is 0.468 µM; in experiment [9], less than 0.01 µM; in experiment [10], 0.0487 µM. Further, the TGI is 12.2 µM in [1]; 16.8 µM in experiment [2]; 17.5 µM in experiment [3]; 0.0223 µM in experiment [4]; 2.98 µM in [5]; 12.9 µM in experiment [6]. Besides, the TGI in experiment [7] came to 21.4 µM; in experiment [8] it was 13.7 µM; in [9], 1.79 µM; in [10], 12.5 µM.

For `CC(=O)Oc1ccc2ccc(=O)oc2c1OC(C)=O`, the TGI in [1] was greater than 100 µM; in experiment [2], greater than 100 µM; in [3] it was greater than 100 µM; in [4] it was 38.1 µM; in [5], greater than 100 µM; in experiment [6], greater than 100 µM. Besides, the TGI in experiment [7], in experiment [8], in experiment [9] and in experiment [10] was greater than 100 µM throughout.

For `C[N+](C)(C)CCC(=O)N1C/C(=C\c2ccccc2)C(=O)/C(=C/c2ccccc2)C1`, the TGI in [1] is 18.2 µM; in experiment [2], 13.4 µM; in [3], 35.9 µM; in [4], 9.44 µM; in [5] it was 23.3 µM; in experiment [6], 6 µM. In addition, the TGI in experiment [7] worked out at 6.97 µM; in experiment [8] it was 6.49 µM; in [9], 7.31 µM; in experiment [10], 13 µM.

Regarding `O=S(=O)(O)c1ccc(Cl)cc1.[Cd]`, the GI50 in experiment [1] is 36 µM; in experiment [2] it was 20.9 µM; in [3], 80.6 µM; in experiment [4], 51.7 µM; in experiment [5] it was 23.2 µM; in [6], 34 µM. Besides, the GI50 is 25.2 µM in experiment [7], greater than 100 µM in experiment [8], 79.2 µM in experiment [9] and 24.7 µM in experiment [10]. The TGI in experiment [1] was greater than 100 µM; in experiment [2] it was 43.2 µM; in experiment [3], greater than 100 µM; in experiment [4], greater than 100 µM; in experiment [5] it was 82.3 µM; in experiment [6], greater than 100 µM. In addition, the TGI was 66.3 µM in experiment [7], greater than 100 µM in experiment [8], greater than 100 µM in experiment [9] and 72 µM in experiment [10].

As to `COc1ccc2c(CC(=O)O)cc(=O)oc2c1`, the TGI in experiment [1], in [2], in experiment [3], in [4], in experiment [5] and in experiment [6] was greater than 100 µM throughout. The TGI in [7], in experiment [8], in [9] and in [10] was greater than 100 µM each time.

With `C/C(=N\Nc1ccc2ccccc2n1)c1ccccc1O`, the TGI in experiment [1], in experiment [2], in experiment [3], in experiment [4], in [5] and in [6] was greater than 100 µM throughout. Besides, the TGI in experiment [7] was greater than 100 µM; in experiment [8], greater than 100 µM; in experiment [9], greater than 58.5 µM; in experiment [10] it was greater than 100 µM.

As for `Fc1ccc(CNc2c3ccccc3nc3ccccc23)cc1`, the GI50 in experiment [1] is 1.46 µM; in experiment [2] it was 2.3 µM; in [3], 2.61 µM; in experiment [4] it was 2.9 µM; in experiment [5], 2.36 µM; in experiment [6], 3.02 µM. Moreover, the GI50 in experiment [7] is 3.11 µM; in [8], 1.98 µM; in [9] it was 2.9 µM; in [10] it was 2.74 µM. Further, the TGI in [1] worked out at 3.8 µM; in experiment [2], 6.02 µM; in experiment [3] it was 11.4 µM; in experiment [4] it was 8.97 µM; in experiment [5], 8.57 µM; in experiment [6], 14.1 µM. The TGI in [7] stood at 16.8 µM; in experiment [8] it was 5.31 µM; in experiment [9], 10.8 µM; in experiment [10] it was 9.49 µM.

Consider `CCOC(=O)C1=C(N)Oc2c(sc3c(C)cccc23)C1c1ccc(Cl)cc1` (stereo not drawn), for which the GI50 in experiment [1] is 1.2 µM; in experiment [2] it was 0.962 µM; in experiment [3], 3.75 µM; in [4], 2.56 µM; in experiment [5], 2.5 µM; in experiment [6], 3.46 µM. Moreover, the GI50 was 2.53 µM in experiment [7], 2.02 µM in [8], 3.58 µM in experiment [9] and 6.13 µM in experiment [10]. The TGI was 17.3 µM in experiment [1]; 15.4 µM in experiment [2]; 17.1 µM in experiment [3]; 7.81 µM in [4]; 10.5 µM in experiment [5]; 14.8 µM in experiment [6]. Besides, the TGI in experiment [7] was 13.5 µM; in experiment [8] it was 10.6 µM; in [9], 19.7 µM; in experiment [10] it was 22.4 µM.

On to `CCOc1cc(C=O)c2c(ccc3ccc(OC)c(OC)c32)c1OC`, for which the TGI in [1], in [2], in experiment [3], in experiment [4], in experiment [5] and in experiment [6] was greater than 100 µM each time. In addition, the TGI in experiment [7], in [8], in [9] and in [10] was greater than 100 µM in each case.

`CC1(C)CC(=O)C(C(c2cccc(O)c2O)C2C(=O)CC(C)(C)CC2=O)C(=O)C1`: the TGI in experiment [1], in [2], in [3], in [4], in [5] and in experiment [6] was greater than 100 µM each time. The TGI in experiment [7], in experiment [8], in experiment [9] and in [10] was greater than 100 µM each time.

As for `O=C(CCc1nnc(-c2c(Cl)cccc2Cl)o1)c1nc2ccccc2[nH]1`, the GI50 was 3.49 µM in [1]; 5.26 µM in experiment [2]; 5.48 µM in experiment [3]; 2.23 µM in experiment [4]; 3.23 µM in experiment [5]; 10.9 µM in experiment [6]. In addition, the GI50 is 3.71 µM in [7], 5.13 µM in experiment [8], 4.07 µM in [9] and 7.29 µM in [10]. The TGI in [1] was 41.1 µM; in experiment [2], 39.1 µM; in experiment [3] it was greater than 100 µM; in experiment [4] it was 19.3 µM; in experiment [5], 63.2 µM; in experiment [6] it was 77.6 µM. The TGI is greater than 100 µM in [7], 48.6 µM in experiment [8], 25.8 µM in [9] and 46.6 µM in experiment [10].

As to `CCc1ccc(CCC(=O)Nc2ncc(Cc3cc(Cl)ccc3Cl)s2)o1`, the GI50 was 0.774 µM in [1]; 1.69 µM in experiment [2]; 2.32 µM in experiment [3]; 0.887 µM in experiment [4]; 2.49 µM in experiment [5]; 1.61 µM in experiment [6]. The GI50 in experiment [7] was 1.49 µM; in experiment [8], 0.508 µM; in [9], 1.3 µM; in experiment [10], 3.6 µM. The TGI in experiment [1] is 12.1 µM; in experiment [2] it was greater than 50 µM; in [3], greater than 50 µM; in experiment [4], 2.11 µM; in experiment [5], greater than 50 µM; in experiment [6], 11.7 µM. In addition, the TGI in experiment [7], in [8], in experiment [9] and in experiment [10] was greater than 50 µM in each case.

In the case of `O=C(/C=C/c1ccccn1)c1ccccc1O`, the GI50 in experiment [1] is 1.58 µM; in [2] it was 1.76 µM; in experiment [3], 5.22 µM; in experiment [4], 2.15 µM; in experiment [5], 2.35 µM; in experiment [6] it was 2.02 µM. In addition, the GI50 in [7] is 2.92 µM; in experiment [8] it was 2.35 µM; in experiment [9], 2.43 µM; in [10] it was 2.53 µM. For the same molecule, the TGI in experiment [1] stood at 3.21 µM; in [2] it was 3.36 µM; in [3], 21.8 µM; in [4], 6.15 µM; in experiment [5], 8.76 µM; in [6] it was 5.78 µM. Besides, the TGI in experiment [7] was 8.29 µM; in [8], 6.68 µM; in [9], 7.04 µM; in experiment [10] it was 7.02 µM.

Consider `C=C1C(=O)O[C@H]2[C@H]1CC/C(C=Nc1ccc(C(F)(F)F)cc1N)=C\CC[C@@]1(C)O[C@@H]21`, for which the GI50 in [1] is 3.73 µM; in experiment [2], 3.36 µM; in experiment [3] it was 10.8 µM; in [4], 3.53 µM; in [5] it was 10.7 µM; in [6], 10.9 µM. For the same molecule, the GI50 in [7] is 9.08 µM; in experiment [8] it was 3.48 µM; in experiment [9], 3.06 µM; in experiment [10], 7.6 µM. Besides, the TGI stood at 16.7 µM in experiment [1]; 18.4 µM in experiment [2]; 23.4 µM in experiment [3]; 14.3 µM in experiment [4]; 25.7 µM in [5]; 23.9 µM in experiment [6]. For the same molecule, the TGI was found to be 23.4 µM in experiment [7], 13.6 µM in experiment [8], 9.67 µM in experiment [9] and 21.1 µM in experiment [10].

`C=C1C(=O)O[C@H]2[C@H]1CC/C(COC(=O)/C=C\C(=O)NCc1ccc(Cn3c(=O)sn(-c4ccc(OC)cc4)c3=O)cc1)=C\CC[C@@]1(C)O[C@@H]21`: the GI50 is 0.291 µM in [1]; 0.505 µM in experiment [2]; 0.773 µM in experiment [3]; 0.876 µM in experiment [4]; 0.863 µM in experiment [5]; 0.834 µM in experiment [6]. The GI50 in [7] was 0.542 µM; in experiment [8], 0.443 µM; in experiment [9] it was 0.584 µM; in experiment [10], 0.693 µM. Also, the TGI in [1] was found to be 0.997 µM; in [2], 1.21 µM; in experiment [3] it was 1.51 µM; in experiment [4] it was 3.74 µM; in experiment [5], 1.84 µM; in experiment [6] it was 2.19 µM. In addition, the TGI in experiment [7] worked out at 1.32 µM; in experiment [8] it was 1.56 µM; in [9], 9.78 µM; in experiment [10] it was 1.37 µM.
